# How the values were obtained:
# [1] = test system: GBM cell line (U87); experiment: Animal model of glioblastoma multiforme (U87 implanted into mouse brain): body weight, survival, tumor growth; type: in vivo, mice
# Protocol: To corroborate the actual effect of the drug carrier in living organisms, in a further experiment, 10^6 cells of the GBM cell line (U87) were implanted into the brains of mice to establish an animal model of glioblastoma multiforme. Seven days after the implantation surgery, the mice were administered the chemotherapy drug and/or drug carrier via intravenous injection, and imaging was used to confirm the growth status of the chemotherapy drug and/or drug carrier and the GBM cell line in the mouse brain. […]
# FIGS. 10D and 10E further analyze the fluorescence expression (intensity (10^6)) of the GBM cell line in the brain area of the experimental mice in each group, and present the tissue morphology through hematoxylin-eosin staining (H&E staining) technique in the tissue section staining images to analyze the growth status of the GBM cells. […]
# [2] = test system: GBM cell line U87; experiment: Cell death rate of GBM cells in the blood-brain barrier cell culture model; type: cell-based; conditions: U87, BBB model
# Protocol: The blood-brain barrier cell culture model 10 includes a first culture area 11 and a second culture area 12, with multiple perforations 13 connecting the first culture area 11 and the second culture area 12. The first culture area 11 and the second culture area 12 are filled with a hydrogel A. The GBM cell line U87 is cultured in the hydrogel A of the first culture area 11, while endothelial cells 20, pericytes 30, and astrocytes 40 are sequentially arranged in the second culture area 12. Wherein the resistance value of the blood-brain barrier cell culture model 10 is set to 214462 Ω.cm^2 to establish an impedance environment of the blood-brain barrier. In subsequent experiments, the drug carrier is given to the second culture area 12 of the blood-brain barrier cell culture model 10, and experimental analysis is performed on the GBM cell line U87 in the first culture area 11 to confirm the efficacy and therapeutic effect of the drug carrier crossing from the second culture area 12 to the first culture area 11. […]
structure (smiles),measurement,setting,value
"Cn1nnc2c(C(N)=O)ncn2c1=O [TMZ, Temodal]",survival rate of the experimental mice,"[1]; U87 brain-implanted mice, intravenous injection",increased
same,growth of the GBM cell line in brain (fluorescence intensity),[1]; compared with Clt and αHLA-G EV groups,inhibited to some extent
same,cell death rate (%) of the GBM cells,[2]; 1st to 3rd day overall,significant cell death rate
same,"cell death rate (%) of the GBM cells, third day",[2]; by the third day,tended to moderate

# From patent publication US20250057973A1, “Exosomes for treating glioblastoma multiforme and manufacturing method thereof” (China Medical University, priority 2023, published 2025)
